# Test results as given in paper PMC5654471 (Bioorganic & medicinal chemistry letters, 2016).
# Assays:
# MOLM-14 cells [1] = assay: ROS production; format: cell-based; conditions: approximately 2 hours post-treatment
# THP-1 cells = assay: ROS production; format: cell-based; conditions: approximately 2 hours post-treatment
# MOLM-14 cells [2] = assay: Double strand DNA breaks, γ-H2Ax immunofluorescence; format: cell-based; conditions: 24 hours exposure, 200 nM, 1.0 and 2.0 µM
# female NSG mice = assay: Safety and tolerability in NSG mice; format: in vivo
smiles,measurement,setting,value
"O=C1C(C2=C(N3CC3)C(=O)c3ccccc3C2=O)=C(N2CC2)C(=O)c2ccccc21 [Compound 3, 3,3'-Di(aziridin-1-yl)-[2,2'-binaphthalene]-1,1',4,4'-tetraone]",ROS production (RFU),MOLM-14 cells [1],dose-dependent increase in ROS production
same,ROS production (RFU),THP-1 cells,dose-dependent increase in ROS production
same,γ-H2Ax phosphorylation (double strand DNA breaks),MOLM-14 cells [2],substantial γ-H2Ax phosphorylation
same,tolerability,"female NSG mice; 5, 10 and 15 mg/kg IP for 5 consecutive days, one week observation",tolerated the compound well
same,mean body weight loss,"female NSG mice; mouse, in vivo, ip",≤ 10%
